Source: PubChem BioAssay (NCI)
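Five concentrations, 48 hours, 96-well plates. TGI denotes the concentration required for complete inhibition of growth.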

Legend:
Assay in all cases: NCI anticancer screen, dose series, 48 h
786-0 renal = tested on: 786-0 renal
A498 renal = tested on: A498 renal
A549 NSCLC = tested on: A549 NSCLC
ACHN renal = tested on: ACHN renal
CAKI-1 renal = tested on: CAKI-1 renal
CCRF-CEM leukemia = tested on: CCRF-CEM leukemia
COLO 205 colon = tested on: COLO 205 colon
DLD-1 colon = tested on: DLD-1 colon
DMS 114 small cell lung = tested on: DMS 114 small cell lung
DMS 273 small cell lung = tested on: DMS 273 small cell lung
EKVX NSCLC = tested on: EKVX NSCLC
HCC-2998 colon = tested on: HCC-2998 colon
HCT-116 colon = tested on: HCT-116 colon
HCT-15 colon = tested on: HCT-15 colon
HL-60(TB) leukemia = tested on: HL-60(TB) leukemia
HOP-18 NSCLC = tested on: HOP-18 NSCLC
HOP-62 NSCLC = tested on: HOP-62 NSCLC
HOP-92 NSCLC = tested on: HOP-92 NSCLC
HT29 colon = tested on: HT29 colon
IGROV1 ovarian = tested on: IGROV1 ovarian
K-562 leukemia = tested on: K-562 leukemia
KM12 colon = tested on: KM12 colon
KM20L2 colon = tested on: KM20L2 colon
LOX IMVI melanoma = tested on: LOX IMVI melanoma
LXFL 529 NSCLC = tested on: LXFL 529 NSCLC
M14 melanoma = tested on: M14 melanoma
M19-MEL melanoma = tested on: M19-MEL melanoma
MALME-3M melanoma = tested on: MALME-3M melanoma
MOLT-4 leukemia = tested on: MOLT-4 leukemia
NCI-H226 lung = tested on: NCI-H226 lung
NCI-H23 lung = tested on: NCI-H23 lung
NCI-H460 lung = tested on: NCI-H460 lung
NCI-H522 lung = tested on: NCI-H522 lung
OVCAR-3 ovarian = tested on: OVCAR-3 ovarian
OVCAR-4 ovarian = tested on: OVCAR-4 ovarian
OVCAR-5 ovarian = tested on: OVCAR-5 ovarian
OVCAR-8 ovarian = tested on: OVCAR-8 ovarian
RPMI-8226 leukemia = tested on: RPMI-8226 leukemia
RXF 393 renal = tested on: RXF 393 renal
RXF-631 renal = tested on: RXF-631 renal
SF-268 CNS = tested on: SF-268 CNS
SF-295 CNS = tested on: SF-295 CNS
SF-539 CNS = tested on: SF-539 CNS
SK-MEL-2 melanoma = tested on: SK-MEL-2 melanoma
SK-MEL-28 melanoma = tested on: SK-MEL-28 melanoma
SK-MEL-5 melanoma = tested on: SK-MEL-5 melanoma
SK-OV-3 ovarian = tested on: SK-OV-3 ovarian
SN12C renal = tested on: SN12C renal
SNB-19 CNS = tested on: SNB-19 CNS
SNB-75 CNS = tested on: SNB-75 CNS
SNB-78 CNS = tested on: SNB-78 CNS
SW-620 colon = tested on: SW-620 colon
TK-10 renal = tested on: TK-10 renal
U251 CNS = tested on: U251 CNS
UACC-257 melanoma = tested on: UACC-257 melanoma
UACC-62 melanoma = tested on: UACC-62 melanoma
UO-31 renal = tested on: UO-31 renal
XF 498 CNS = tested on: XF 498 CNS

`COC(=O)C1CC(C(=O)OC)c2nc3cc([N+](=O)[O-])ccc3nc21` (stereo not drawn) was tested, and the TGI (786-0 renal) was > 100 µM, the TGI (A498 renal) was > 100 µM and the TGI (A549 NSCLC) was > 100 µM. For the same molecule, the TGI (ACHN renal) was > 100 µM, the TGI (CAKI-1 renal) was > 100 µM and the TGI (CCRF-CEM leukemia) was > 100 µM. For the same molecule, the TGI (COLO 205 colon) was > 100 µM, the TGI (DLD-1 colon) was > 100 µM and the TGI (DMS 114 small cell lung) was > 100 µM. The TGI (DMS 273 small cell lung) was > 100 µM, the TGI (EKVX NSCLC) was > 100 µM and the TGI (HCC-2998 colon) was > 59.1 µM. The TGI (HCT-116 colon) was > 100 µM, the TGI (HCT-15 colon) was > 100 µM and the TGI (HL-60(TB) leukemia) was > 86.8 µM. For the same molecule, the TGI (HOP-18 NSCLC) was > 100 µM, the TGI (HOP-62 NSCLC) was > 100 µM and the TGI (HOP-92 NSCLC) was > 100 µM. For the same molecule, the TGI (HT29 colon) was > 100 µM, the TGI (IGROV1 ovarian) was > 100 µM and the TGI (K-562 leukemia) was > 100 µM. The TGI (KM12 colon) was > 100 µM, the TGI (KM20L2 colon) was > 100 µM and the TGI (LOX IMVI melanoma) was > 31.6 µM. For the same molecule, the TGI (LXFL 529 NSCLC) was > 100 µM, the TGI (M14 melanoma) was > 100 µM and the TGI (M19-MEL melanoma) was > 100 µM. For the same molecule, the TGI (MALME-3M melanoma) was > 100 µM, the TGI (MOLT-4 leukemia) was > 100 µM and the TGI (NCI-H226 lung) was > 100 µM. The TGI (NCI-H23 lung) was > 100 µM, the TGI (NCI-H460 lung) was > 100 µM and the TGI (NCI-H522 lung) was > 64.7 µM. For the same molecule, the TGI (OVCAR-3 ovarian) was > 100 µM, the TGI (OVCAR-4 ovarian) was > 100 µM and the TGI (OVCAR-5 ovarian) was > 100 µM. The TGI (OVCAR-8 ovarian) was > 100 µM, the TGI (RPMI-8226 leukemia) was > 100 µM and the TGI (RXF 393 renal) was > 100 µM. For the same molecule, the TGI (RXF-631 renal) was > 100 µM, the TGI (SF-268 CNS) was > 100 µM and the TGI (SF-295 CNS) was > 100 µM. The TGI (SF-539 CNS) was > 100 µM, the TGI (SK-MEL-2 melanoma) was > 100 µM and the TGI (SK-MEL-28 melanoma) was > 100 µM. The TGI (SK-MEL-5 melanoma) was > 100 µM, the TGI (SK-OV-3 ovarian) was > 100 µM and the TGI (SN12C renal) was > 100 µM. For the same molecule, the TGI (SNB-19 CNS) was > 100 µM, the TGI (SNB-75 CNS) was > 100 µM and the TGI (SNB-78 CNS) was > 100 µM. The TGI (SW-620 colon) was > 100 µM, the TGI (TK-10 renal) was > 100 µM and the TGI (U251 CNS) was > 100 µM. For the same molecule, the TGI (UACC-257 melanoma) was > 100 µM, the TGI (UACC-62 melanoma) was > 100 µM and the TGI (UO-31 renal) was 98.9 µM. The TGI (XF 498 CNS) was > 100 µM.
